The source of these data is US9427442B2, “Fluoroalkyl and fluorocycloalkyl 1,4-benzodiazepinone compounds” (BRISTOL-MYERS SQUIBB COMPANY, priority 2012, dated 2016).

Some results are limits rather than exact numbers.

In one data set the test system is human Notch 1. Briefly: Notch-CBF1 Transactivation Assay (Notch 1). The following applies: read-out: Notch 1 (IC50); HeLa cells transfected with truncated Notch 1 and CBF1 luciferase reporter; 18 hours; average of N experiments. The format is cell-based. The text has this: (§1) Notch-CBF1 Transactivation Assay
(§2) The Notch-CBF1 (C-promoter binding factor I) cell based transactivation assay is based on the ability of the released Notch intracellular domain fragments (NICDs) to function as transcription factors in conjunction with CBF1 and other nuclear factors. Luciferase assays were used to measure the antagonism of Notch-CBF1 transcriptional activity. HeLa cervical cancer cells are transiently co-transfected with pCDNA3.1/Hygro plasmids containing truncated Notch 1, Notch 2, Notch 3, or Notch 4 receptors and a PGL3 luciferase reporter vector containing 4 copies of CBF1 binding site. The cells were then tested for Notch-CBF1 activity in the absence or presence of test compounds. HeLa cells, maintained in DMEM (high glucose with HEPES), 1× glutamine/penicillin/streptomycin and 10% Fetal Bovine serum, were transiently transfected in a T175 Flask (4.5×10^6 cells/flask) using the Monster Transfection Kit (Minis #MIR2906) according to manufacturers specifications. Table 5 denotes respective DNA quantity for the transfections.
(§3) Assay media (5 μL) containing test compounds in final concentrations ranging from 5 μM to 8.4×10^−5 μM (3 fold serial dilutions) were added to the cells and the cell plates were then incubated for 18 hours at 37° C. and 5% CO2. Control wells contained DMSO vehicle (total counts) or 0.5 μM of an in-house small molecule inhibitor (background counts). Duplicates were used for each sample. Luciferase activity was measured after a 20-minute incubation with 50 μl STEADY-GLO® luciferase reagents according to manufacturer's specifications (Promega, Cat. #E2550) and analyzed by Envision plate reader (PerkinElmer, Boston, Mass.).
(§4) The antagonist effect of compounds was expressed as 100×[1−(average sample−average background)/(average total−average background)] where sample is the luciferase activity in the presence of test compound, background is equal to the luciferase activity in the presence of the small molecule inhibitor control and the total is signal induced in DMSO wells.

The test system of another data set is human Notch 3. Briefly: Notch-CBF1 Transactivation Assay (Notch 3). The format is cell-based. The following applies: read-out: Notch 3 (IC50); HeLa cells transfected with truncated Notch 3 and CBF1 luciferase reporter; 18 hours; average of N experiments.
Description: as §1, §2, §3, §4

Data set [1] is described as follows: Human metabolic stability half-life assay. The format is in vitro ADME. The following applies: human liver microsomes, NADPH, 0.5 μM compound, 45-minute time course; for half-life at 0.5 µM: pH 7.4, read-out: HLM (t1/2, min). An excerpt:
Metabolic Stability Half-Life Panel

For `C[C@H](C[C@H](C(N)=O)[C@@H](CCC(F)(F)F)C(=O)N[C@H]1N=C(c2ccccc2)c2cccc(Cl)c2NC1=O)C(F)(F)F` [Example 22, (2R,3S)—N-((3S)-9-Chloro-2-oxo-5-phenyl-2,3-dihydro-1H-1,4-benzodiazepin-3-yl)-3-((2R)-3,3,3-trifluoro-2-methylpropyl)-2-(3,3,3-trifluoropropyl)succinamide], the half-maximal inhibitory concentration (IC50) in the data set on human Notch 1 is 3.2 nM; in the data set on human Notch 3 it was 9.3 nM. The half-life at 0.5 µM in data set [1] amounted to 117 min.
Turning to `C=CC[C@H](C(N)=O)[C@@H](CC(C)C)C(=O)N[C@H]1N=C(c2ccccc2)c2cc(Cl)ccc2N(C)C1=O` [Comparative Compound 27, reference compound], in data set [1], the “HLM (t1/2, min)” value was 6 min.
`NC(=O)[C@@H](CC1CC(F)(F)C1)[C@@H](CCC(F)(F)F)C(=O)N[C@H]1N=C(c2ccccc2)c2cccc(OC3CC3)c2NC1=O` [Example 7, (2R,3S)—N-((3S)-9-(Cyclopropyloxy)-2-oxo-5-phenyl-2,3-dihydro-1H-1,4-benzodiazepin-3-yl)-3-((3,3-difluorocyclobutyl)methyl)-2-(3,3,3-trifluoropropyl)succinamide]: the results for the IC50 with human Notch 1 and with human Notch 3 were 3.9 nM and 2.1 nM, respectively. Further, the half-life at 0.5 µM in data set [1] was greater than 120 min.
`COc1cccc2c1NC(=O)[C@@H](NC(=O)[C@H](CCC(F)(F)F)[C@H](CC1CC(F)(F)C1)C(N)=O)N=C2c1ccccc1` [Example 8, (2R,3S)-3-((3,3-Difluorocyclobutyl)methyl)-N-((3S)-9-methoxy-2-oxo-5-phenyl-2,3-dihydro-1H-1,4-benzodiazepin-3-yl)-2-(3,3,3-trifluoropropyl)succinamide]: the concentration for half-maximal inhibition (IC50) was 2.9 nM in the data set on human Notch 1 and 4 nM in the data set with human Notch 3. For the same molecule, the half-life at 0.5 µM in data set [1] worked out at 58 min.
Taken in the same sequence, the figures for `CC(F)(F)CC[C@H](C(N)=O)[C@@H](CCC(F)(F)F)C(=O)N[C@H]1N=C(c2ccccc2)c2cccc(Cl)c2NC1=O` [Example 24, (2R,3S)—N-((3S)-9-Chloro-2-oxo-5-phenyl-2,3-dihydro-1H-1,4-benzodiazepin-3-yl)-3-(3,3-difluorobutyl)-2-(3,3,3-trifluoropropyl)succinamide] were 3.9 nM, 5.4 nM and greater than 120 min.
Taken in the same sequence, the figures for `NC(=O)[C@@H](C1CCC(F)(F)CC1)[C@@H](CCC(F)(F)F)C(=O)N[C@H]1N=C(c2cccc(F)c2)c2cccc(OC3CC3)c2NC1=O` [Example 3, (2R,3S)—N-((3S)-9-(Cyclopropyloxy)-5-(3-fluorophenyl)-2-oxo-2,3-dihydro-1H-1,4-benzodiazepin-3-yl)-3-(4,4-difluorocyclohexyl)-2-(3,3,3-trifluoropropyl)succinamide] were 4.2 nM, 8.9 nM and 80 min.
For `CCCC[C@H](C(N)=O)[C@@H](CC(C)C)C(=O)N[C@H]1N=C(c2ccc(Cl)cc2)c2ccccc2N(C)C1=O` [Comparative Compound 28, reference compound], the “HLM (t1/2, min)” value in data set [1] was determined as 6 min.
Take `Cc1cccc(C2=N[C@H](NC(=O)[C@H](CCC(F)(F)F)[C@H](CC3CC(F)(F)C3)C(N)=O)C(=O)Nc3c(F)cccc32)c1` [Example 11, (2R,3S)-3-((3,3-Difluorocyclobutyl)methyl)-N-((3S)-9-fluoro-5-(3-methylphenyl)-2-oxo-2,3-dihydro-1H-1,4-benzodiazepin-3-yl)-2-(3,3,3-trifluoropropyl)succinamide]: the IC50 turned out to be 2.1 nM in the data set with human Notch 1 and 2.2 nM in the data set with human Notch 3. Moreover, the half-life at 0.5 µM in data set [1] came out at 46 min.
Taken in the same sequence, the figures for `NC(=O)[C@@H](CC1CC(F)(F)C1)[C@@H](CCC(F)(F)F)C(=O)N[C@H]1N=C(c2ccccc2)c2cccc(Cl)c2NC1=O` [Example 13, (2R,3S)—N-((3S)-9-Chloro-2-oxo-5-phenyl-2,3-dihydro-1H-1,4-benzodiazepin-3-yl)-3-((3,3-difluorocyclobutyl)methyl)-2-(3,3,3-trifluoropropyl)succinamide] were 2.8 nM, 2.4 nM and greater than 120 min.
Taken in the same sequence, the figures for `COc1cccc2c1NC(=O)[C@@H](NC(=O)[C@H](CCC(F)(F)F)[C@@H](C(N)=O)C1CCC(F)(F)CC1)N=C2c1ccccc1` [Example 2, (2R,3S)-3-(4,4-Difluorocyclohexyl)-N-((3S)-9-methoxy-2-oxo-5-phenyl-2,3-dihydro-1H-1,4-benzodiazepin-3-yl)-2-(3,3,3-trifluoropropyl)succinamide] were 7 nM, 6 nM and 43 min.
Taken in the same sequence, the figures for `COc1cccc2c1NC(=O)[C@@H](NC(=O)[C@H](CCC(F)(F)F)[C@H](CCCF)C(N)=O)N=C2c1ccccc1` [Example 16, (2R,3S)-3-(3-Fluoropropyl)-N-((3S)-9-methoxy-2-oxo-5-phenyl-2,3-dihydro-1H-1,4-benzodiazepin-3-yl)-2-(3,3,3-trifluoropropyl)succinamide] were 7 nM, 15.4 nM and 88 min.
As to `NC(=O)[C@@H](CC1CC(F)(F)C1)[C@@H](CCC(F)(F)F)C(=O)N[C@H]1N=C(c2ccccc2)c2ccccc2NC1=O` [Example 15, (2R,3S)-3-((3,3-Difluorocyclobutyl)methyl)-N-((3S)-2-oxo-5-phenyl-2,3-dihydro-1H-1,4-benzodiazepin-3-yl)-2-(3,3,3-trifluoropropyl)succinamide], the values for the IC50 in the data set with human Notch 1 and in the data set with human Notch 3 were 4.4 nM and 3.8 nM, respectively. In data set [1], the half-life at 0.5 µM came out at 35 min.
Taken in the same sequence, the figures for `Cc1cccc2c1NC(=O)[C@@H](NC(=O)[C@H](CCC(F)(F)F)[C@H](CC1CC(F)(F)C1)C(N)=O)N=C2c1cccc(F)c1` [Example 9, (2R,3S)-3-((3,3-Difluorocyclobutyl)methyl)-N-((3S)-5-(3-fluorophenyl)-9-methyl-2-oxo-2,3-dihydro-1H-1,4-benzodiazepin-3-yl)-2-(3,3,3-trifluoropropyl)succinamide] were 3.5 nM, 3.2 nM and 91 min.
Taken in the same sequence, the figures for `COc1cccc2c1NC(=O)[C@@H](NC(=O)[C@H](CCC(F)(F)F)[C@H](CCC(C)(F)F)C(N)=O)N=C2c1ccccc1` [Example 21] were 7.5 nM, 13.8 nM and 76 min.
Taken in the same sequence, the figures for `NC(=O)[C@@H](CCCF)[C@@H](CCC(F)(F)F)C(=O)N[C@H]1N=C(c2ccccc2)c2cccc(Cl)c2NC1=O` [Example 20, (2R,3S)—N-((3S)-9-Chloro-2-oxo-5-phenyl-2,3-dihydro-1H-1,4-benzodiazepin-3-yl)-3-(3-fluoropropyl)-2-(3,3,3-trifluoropropyl)succinamide] were 10.8 nM, 16.5 nM and 107 min.
Regarding `CCC[C@H](C(N)=O)[C@@H](CC(C)C)C(=O)N[C@H]1N=C(c2ccccc2)c2ccccc2N(C)C1=O` [Comparative Compound 26, reference compound], in data set [1], the “HLM (t1/2, min)” value is on record as 8 min.
For `Cc1cccc2c1NC(=O)[C@@H](NC(=O)[C@H](CCC(F)(F)F)[C@H](CC1(F)CCC1)C(N)=O)N=C2c1ccccc1` [Example 25, (2R,3S)-3-((1-Fluorocyclobutyl)methyl)-N-((3S)-9-methyl-2-oxo-5-phenyl-2,3-dihydro-1H-1,4-benzodiazepin-3-yl)-2-(3,3,3-trifluoropropyl)succinamide], the IC50 is 3.8 nM in the data set on human Notch 1 and 20.1 nM in the data set with human Notch 3. Besides, the half-life at 0.5 µM in data set [1] was 33 min.
Taken in the same sequence, the figures for `NC(=O)[C@@H](CC1CC(F)(F)C1)[C@@H](CCC(F)(F)F)C(=O)N[C@H]1N=C(c2ccccc2)c2cccc(F)c2NC1=O` [Example 14, (2R,3S)-3-((3,3-Difluorocyclobutyl)methyl)-N-((3S)-9-fluoro-2-oxo-5-phenyl-2,3-dihydro-1H-1,4-benzodiazepin-3-yl)-2-(3,3,3-trifluoropropyl)succinamide] were 4.5 nM, 1.4 nM and greater than 120 min.
Taken in the same sequence, the figures for `NC(=O)[C@@H](C1CC(F)(F)C1)[C@@H](CCC(F)(F)F)C(=O)N[C@H]1N=C(c2ccccc2)c2ccccc2NC1=O` [Example 6] were 14 nM, 18.9 nM and greater than 120 min.
`C=CC[C@H](C(N)=O)[C@@H](CC(C)C)C(=O)N[C@H]1N=C(c2ccccc2)c2ccccc2N(CCC)C1=O` [Comparative Compound 29, reference compound]: the “HLM (t1/2, min)” value in data set [1] is 3 min.
